Test results from ChEMBL document CHEMBL3639364, “Preparation method of dihydroindene amide compounds, their pharmaceutical compositions containing compounds thereof and use as protein kinases inhibitor” (2014).
pIC50: −log10 of the molar value.

Experiments:
[1] = target: Mast/stem cell growth factor receptor Kit (Homo sapiens, UniProt P10721); assay: (§1) Kinase buffer: 62.5 mM HEPES, pH 7.5; 0.001875% Brij-35; 12.5 mM MgCl2; 2.5 mM DTT. Stop buffer: 100 mM HEPES, pH 7.5; 0.015% Brij-35; 0.2% coating agent 3; 50 mM EDTA. Preparation of kinase solution: Kinase solution was obtained by dissolving kinases in the kinase buffer mentioned above. With regard to c-Kit kinase, the pre-activation treatments should be carried out as follows. 700 nM c-Kit, 2 mM ATP, 4 mM DTT and 10 mM MgCl2 were dissolved in kinase buffer. After being incubated at 28° C. for 15 minutes, the solution was added to the kinase buffer.
[2] = target: Platelet-derived growth factor receptor beta (Homo sapiens, UniProt P09619); assay: as §1
Sequence of Platelet-derived growth factor receptor beta (P09619 whole entry): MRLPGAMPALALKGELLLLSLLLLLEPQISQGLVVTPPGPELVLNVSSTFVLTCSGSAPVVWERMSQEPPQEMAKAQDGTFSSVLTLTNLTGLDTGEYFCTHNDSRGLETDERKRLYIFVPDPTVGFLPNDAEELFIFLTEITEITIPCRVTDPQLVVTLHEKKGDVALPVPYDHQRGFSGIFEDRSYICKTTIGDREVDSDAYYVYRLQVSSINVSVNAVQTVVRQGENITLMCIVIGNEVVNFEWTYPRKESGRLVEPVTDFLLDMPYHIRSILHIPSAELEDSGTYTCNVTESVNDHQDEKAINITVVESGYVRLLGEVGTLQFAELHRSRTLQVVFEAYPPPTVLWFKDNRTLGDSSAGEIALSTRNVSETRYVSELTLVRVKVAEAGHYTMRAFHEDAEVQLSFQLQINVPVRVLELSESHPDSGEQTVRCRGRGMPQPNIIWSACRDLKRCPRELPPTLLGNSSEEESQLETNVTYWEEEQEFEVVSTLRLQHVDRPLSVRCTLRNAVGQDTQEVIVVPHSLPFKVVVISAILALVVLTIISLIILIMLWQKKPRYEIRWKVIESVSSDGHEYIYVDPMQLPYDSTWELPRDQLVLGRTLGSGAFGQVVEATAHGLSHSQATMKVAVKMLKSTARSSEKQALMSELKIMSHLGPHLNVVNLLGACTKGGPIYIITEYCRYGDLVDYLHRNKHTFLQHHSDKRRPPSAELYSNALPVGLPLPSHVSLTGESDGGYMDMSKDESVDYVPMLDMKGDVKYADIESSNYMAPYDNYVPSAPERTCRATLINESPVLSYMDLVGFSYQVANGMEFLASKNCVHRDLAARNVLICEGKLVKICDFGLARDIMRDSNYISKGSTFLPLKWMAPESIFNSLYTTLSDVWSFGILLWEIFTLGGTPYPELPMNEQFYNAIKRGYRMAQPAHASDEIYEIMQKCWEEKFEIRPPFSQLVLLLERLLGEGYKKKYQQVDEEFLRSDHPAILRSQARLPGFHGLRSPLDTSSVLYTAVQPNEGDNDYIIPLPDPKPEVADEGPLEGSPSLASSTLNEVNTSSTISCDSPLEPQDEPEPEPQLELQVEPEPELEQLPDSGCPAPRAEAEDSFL

Sequence of Mast/stem cell growth factor receptor Kit (P10721 whole entry): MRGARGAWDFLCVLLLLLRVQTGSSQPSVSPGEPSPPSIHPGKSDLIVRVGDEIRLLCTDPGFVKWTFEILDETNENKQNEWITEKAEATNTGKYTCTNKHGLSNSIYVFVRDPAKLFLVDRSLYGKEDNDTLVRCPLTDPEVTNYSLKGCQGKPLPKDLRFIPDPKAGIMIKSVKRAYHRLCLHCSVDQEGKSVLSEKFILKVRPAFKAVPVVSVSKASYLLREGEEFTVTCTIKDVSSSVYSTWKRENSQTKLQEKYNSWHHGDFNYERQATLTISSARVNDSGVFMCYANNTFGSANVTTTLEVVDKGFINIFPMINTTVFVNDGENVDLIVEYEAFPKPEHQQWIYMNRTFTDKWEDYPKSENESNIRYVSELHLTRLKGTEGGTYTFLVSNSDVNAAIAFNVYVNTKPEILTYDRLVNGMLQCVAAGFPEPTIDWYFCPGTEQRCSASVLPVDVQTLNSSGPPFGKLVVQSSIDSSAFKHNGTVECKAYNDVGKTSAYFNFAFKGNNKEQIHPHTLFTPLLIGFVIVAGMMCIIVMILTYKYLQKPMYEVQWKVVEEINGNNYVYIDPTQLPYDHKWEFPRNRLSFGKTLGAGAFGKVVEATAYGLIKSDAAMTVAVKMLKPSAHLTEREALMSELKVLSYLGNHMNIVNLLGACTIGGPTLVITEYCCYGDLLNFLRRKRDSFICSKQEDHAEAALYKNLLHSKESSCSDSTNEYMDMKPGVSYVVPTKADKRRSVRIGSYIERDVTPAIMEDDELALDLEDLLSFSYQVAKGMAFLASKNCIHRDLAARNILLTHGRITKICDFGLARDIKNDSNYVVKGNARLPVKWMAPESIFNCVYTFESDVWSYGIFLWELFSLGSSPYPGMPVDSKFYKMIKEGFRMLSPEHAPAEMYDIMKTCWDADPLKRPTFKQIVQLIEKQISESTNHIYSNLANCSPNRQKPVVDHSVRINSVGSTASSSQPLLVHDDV

pIC50 [1]	pIC50 [2]	Structure (SMILES)
7.59	7.82	CCN1CCN(C2CCc3cc(C(=O)Nc4ccc(C)c(Nc5nccc(-c6cccnc6)n5)c4)ccc32)CC1 (centres undefined)
7.49	7.68	Cc1ccc(NC(=O)c2ccc3c(c2)CCC3N2CC[C@@H](N(C)C)C2)cc1Nc1nccc(-c2cccnc2)n1 (some centres undefined)
